The record followed here is patent US6827926B2, “Metallotetrapyrrolic photosensitizing agents for use in photodynamic therapy” (Miravant Pharmaceuticals, Inc., priority 2001, dated 2004).

In data set [1] the test system is skin of Sprague Dawley rats. As to the kind of experiment: Topical in-vivo skin response, Sprague Dawley rats (single topical dermal application).
The test system of data set [2] is V79 (Chinese Hamster Lung Fibroblasts) cells. As to the kind of experiment: In vitro cytotoxicity assay (light EC50, Alamar blue). Format: cell-based. In short, it runs like this:
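V79 cells in phenol-free 5% FBS/DMEM exposed 24 h to photosensitizer at final 0.01–5.0 μM, six replicates, then washed and light-treated, with a dark plate as control. Survival by Alamar blue after 24 h dark incubation, read at 570/600 nm.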

For data set [3], the system named is normal skin of CD Hairless male rats. Format: in vivo, rat. In short, it runs like this:
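Liposomal egg yolk phospholipid photosensitizer given as single i.v. tail-vein bolus at 1, 1.5 and 2 μmol/kg; skin spots irradiated with 532 nm laser (150 mW/cm^2, 150J, 1 cm) at 1, 6, 24, 48, 96 hrs post injection. Value is time of last observed skin response spot.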

Data set [4] deals with normal uninjured rat carotid arteries (medial and adventitial cell populations). The experiment in a line: In vivo rat carotid artery acellularity after PDT. Details: species or system Sprague Dawley rats. To be noted: for Max % rat Artery Accelularity: Table 3, 50 J/cm^2, 3 days post treatment; for Max % Rat Artery Acceluarity: Table 5; for accelularity in rat artery at a four hour treatment point: 4 hrs post administration. In outline: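 Metallated photosensitizers light-activated in normal uninjured rat left common carotid via balloon catheter introduced through femoral arteriotomy under isoflurane; excitation 575 nm (Ga, Zn, Al, Sn) or 532 nm (Pt). Arteries harvested 3 days post-treatment, H&E-stained; medial and adventitial cell density assessed by light microscopy.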

Data set [5] can be described thus: Systemic toxicity in animals near the therapeutic dose. To be noted: 3× the therapeutic dose.
[6] abbreviates: Table 3 porphyrins, 24 h drug incubation, 532 nm, 1.25 J/cm^2, read-out: In Vitro EC50 Light.
The mark [7] stands for this setting: Table 3, time of last skin spot observed post injection, 1 μmol, 532 nm laser.
The mark [8] stands for this setting: Table 5 plant derived gallium porphyrins, light, read-out: In Vitro EC(50).
Setting [9] is: Table 4 azaporphyrins, 575 nm (Pt azaporphyrins 532 nm), 1.25 J/cm^2, read-out: In Vitro EC(50).
[10] abbreviates: Table 4, drug dose 1 μMol, 575 nm (Pt 532 nm).

Read-outs that look alike come from different tables or passages of the source.

In the case of `CCCOC(=O)CCC1=C(C)c2cc3[n-]c(cc4nc(cc5[n-]c(cc1n2)c(CCC(=O)OCCC)c5C)C(CC)=C4C)c(CC)c3C.[Cl-].[Ga+3]` [Example 3, Gallium Chloride Mesoporphyrin Dipropyl Ester], in data set [1] (topical 0.14 mg/cm^2), the “delay of hair regrowth” value was “approximately 21 days” and the skin response result is reported as “no skin response”. Further, in data set [1] (topical 0.28 mg/cm^2), the “clearing formation of the skin first seen, time post light treatment” value came to 7 days; the “delay of hair regrowth in the treatment site post light treatment” value is on record as “approximately 38 days”; the “persistence of clearing formation of the skin” value is “at least 28 days”. For the same compound, in data set [1] (topical 0.6 mg/cm^2), the “clearing formation, duration” value is on record as “at least 30 days”; the “skin responses (small, slight eschar), duration post light treatment” value was “approximately 10 days”; the “time hair did not regrow in the treatment site post light treatment” value is on record as “approximately 38 days”; the “variable clearing persisting post light treatment” value is listed as “up to 3 months”. For the same compound, the EC50 in data set [2] (setting [6]) amounted to 60 nM. Further, the “Normal skin Response (1 μmol)” value in data set [3] (setting [7]) worked out at 6 h. Besides, the “Max % rat Artery Accelularity” value in data set [4] (drug dose 1 μMol) came to 85%.

`CCC1=C(C)c2cc3[n-]c(cc4nc(cc5[n-]c(cc1n2)c(C)c5CC)C(C)=C4CCCC(=O)OC)c(CCCC(=O)OC)c3C.[Cl-].[In+3]` [Example 46, Indium Chloride 8,13-diethyl-3,7,12,17-tetramethylporphyrin-2,18-di(butanoic acid methyl ester)]: the EC50 in data set [2] (setting [6]) turned out to be 40 nM. In addition, the “Normal skin Response (1 μmol)” value in data set [3] (setting [7]) was 48 h. In addition, in data set [4] (drug dose 1 μMol), the “Max % rat Artery Accelularity” value is listed as 90%. Moreover, the toxicity in animals result in data set [5] is given as “death occurs in the animals at 3× the therapeutic dose”.

On to `CCC1=C(C)C2=Cc3c(CC)c(C)c4[n]3[Ga-2]35([Cl])[n]6c(c(C)c(C(=O)OC)c6=CC6=[N+]3C(=C4)C(C)=C6CCC(=O)NC)=CC1=[N+]25` [M=Ga R1=CONHMe R2=Et R3=Et R4=CO2Me R5=H], for which the EC50 in data set [2] (setting [8]) is 420 nM. The same compound displayed a Normal skin Response (1 μmol) in data set [3] (rat, in vivo) of 6 h. The “Max % Rat Artery Acceluarity” value in data set [4] (drug dose 1 μMol) was 65%.

For the compound `CCC1=C(C)C2=Cc3c(CC)c(C)c4[n]3[Ga-2]35([Cl])[n]6c(c(C)c(CCCC(=O)OCCF)c6=CC6=[N+]3C(=C4)C(C)=C6CCCC(=O)OCCF)=CC1=[N+]25` [M=Ga R1=Et R3=Me R4=Et R2=CH2CO2CH2CH2F], the EC50 in data set [2] (setting [6]) amounted to 400 nM. The “Normal skin Response (1 μmol)” value in data set [3] (rat, in vivo) came out at 24 h. Moreover, in data set [4] (drug dose 1 μMol), the “Max % rat Artery Accelularity” value is on record as 75%.

With `CCOC(=O)CCCC1=C(C)C2=Cc3c(C)c(CC)c4[n]3[Ga-2]35([Cl])[n]6c(c(C)c(CCCC(=O)OCC)c6=CC1=[N+]23)=CC1=[N+]5C(=C4)C(C)=C1CC` [M=Ga R1=Et R3=Me R4=Et R2=CH2CO2Et], the EC50 in data set [2] (setting [6]) was 400 nM. Moreover, the “Normal skin Response (1 μmol)” value in data set [3] (rat, in vivo) worked out at 24 h. The “Max % rat Artery Accelularity” value in data set [4] (drug dose 1 μMol) is 80%.

As for `CCC1=C(C)C2=Cc3c(CC)c(C)c4[n]3[Ga-2]35([Cl])[n]6c(c(C)c(CCC(=O)O)c6=CC6=[N+]3C(=C4)C(C)=C6CCC(=O)O)=CC1=[N+]25` [M=Ga R1=Et R3=Me R4=Et R2=CO2H], the EC50 in data set [2] (setting [6]) was found to be 2000 nM. Further, in data set [3] (rat, in vivo), the “Normal skin Response (1 μmol)” value stood at 24 h. Besides, the “accelularity in rat artery at a four hour treatment point” value in data set [4] is given as 15%. In data set [4] (drug dose 1 μMol), the “Max % rat Artery Accelularity” value came to 15%.

On to `CCCCCCNC(=O)CCC1=C(C)C2=Cc3c(C)c(CC)c4[n]3[Ga-2]35([Cl])[n]6c(c(C)c(CCC(=O)NCCCCCC)c6=CC1=[N+]23)=CC1=[N+]5C(=C4)C(C)=C1CC` [M=Ga R1=Et R3=Me R4=Et R2=CONH(Hexyl)], for which the EC50 in data set [2] (setting [6]) stood at 400 nM. The “Normal skin Response (1 μmol)” value in data set [3] (setting [7]) came to 96 h. The “normal skin responses, time post drug injection” value in data set [3] (rats, drug dose 1 μmol/Kg) came out at 96 h. For the same compound, the “Max % rat Artery Accelularity” value in data set [4] (drug dose 1 μMol) is 60%.

As to `CCC1=C(CC)c2nc1cc1[nH]c(cc3nc(cc4[nH]c(n2)c(CC)c4CC)C(C)=C3CCC(=O)O)c(CCC(=O)O)c1C` [M=H2 R1,R3=Et R2,R4=Et R=CO2H], the EC50 in data set [2] (setting [9]) was 450 nM. Moreover, the “Normal skin Response (1 μmol) in hrs” value in data set [3] (rat, in vivo) is listed as “None”. In addition, the “accelularity in rat artery at a four hour treatment point” value in data set [4] is recorded as 0%. In addition, in data set [4] (setting [10]), the “Max % Rat Artery Accelularity” value came out at 0%.

With `C=CC1=C(C)C2=Cc3c(C=C)c(C)c4[n]3[Sn-2]35([Cl])([Cl])[n]6c(c(C)c(CCC(=O)OC)c6=CC6=[N+]3C(=C4)C(C)=C6CCC(=O)OC)=CC1=[N+]25` [M=Sn R1=V R3=Me R4=V R2=CO2Me], in data set [2] (setting [6]), the EC50 amounted to 1400 nM. Further, in data set [3] (setting [7]), the “Normal skin Response (1 μmol)” value turned out to be 24 h. In addition, the “Max % rat Artery Accelularity” value in data set [4] (drug dose 1 μMol) worked out at 10%.

On to “Aluminum Chloride 7,8,12,13-tetraethyl-12,17-dimethyl-10-azaporphyrin-2,18-di(propionic acid methyl ester) [Example 84]”, for which the EC50 in data set [2] (setting [9]) was determined as 40 nM. In addition, in data set [3] (rat, in vivo), the “Normal skin Response (1 μmol)” value stood at 48 h. In data set [4] (setting [10]), the “Max % Rat Artery Accelularity” value is recorded as 50%.

On to “Aluminum Chloride Mesoporphyrin Dimethyl Ester [Example 30]”, for which the EC50 in data set [2] (setting [6]) came to 3000 nM. Besides, the “Normal skin Response (1 μmol)” value in data set [3] (rat, in vivo) was determined as 24 h. Besides, the “Max % rat Artery Accelularity” value in data set [4] (drug dose 1 μMol) turned out to be 0%.

Regarding “Gallium Chloride 3,7,14,17-tetramethyl-5,10-diazaporphyrin-2,8,12,18-tetra(propionic acid methyl ester) [Example 116]”, in data set [2] (light EC50, metallodiazaporphyrins, read-out: In Vitro EC(50)), the EC50 was 350 nM. Besides, the “Normnal skin Response (1 μmol)” value in data set [3] (rat, in vivo) is 4. The “Max % Rat Artery Accelularity” value in data set [4] (drug dose 1 (μMol), i.v., 50 J/cm^2, 160 mW/cm^2, Ga excited at 575 nm, sacrifice three days post treatment) stood at 55%.

For “Gallium Chloride 8,13-diethyl-3,7,12,17-tetramethylporphyrin-2,18-di(3′-hydroxypropyl) [Example 7]”, the EC50 in data set [2] (setting [6]) was found to be 550 nM. In data set [3] (rat, in vivo), the “Normal skin Response (1 μmol)” value was determined as 48 h. Besides, the “Max % rat Artery Accelularity” value in data set [4] (drug dose 1 μMol) is recorded as 95%. In addition, the “reduction of smooth muscle cells in the media and myofibroblasts in the adventitial layers of rat arteries” value in data set [4] (text b238) is listed as “efficient at dramatically reducing the number of smooth muscle cells”.

Consider “Gallium Chloride 8,13-diethyl-3,7,12,17-tetramethylporphyrin-2,18-di(3′-methoxypropyl) [Example 10]”, for which the EC50 in data set [2] (setting [6]) is 400 nM. Moreover, the “Normal skin Response (1 μmol)” value in data set [3] (rat, in vivo) worked out at 48 h. Further, the “Max % rat Artery Accelularity” value in data set [4] (drug dose 1 μMol) worked out at 75%.

Regarding “Gallium Chloride Chloroporphyrin e6 Trimethyl Ester [Example 13]”, the EC50 in data set [2] (setting [8]) was found to be 400 nM. In data set [3] (rat, in vivo), this compound came in with a Normal skin Response (1 μmol) of 6 h. The “Max % Rat Artery Acceluarity” value in data set [4] (drug dose 1 μMol) amounted to 70%.

“Gallium Chloride Mesoporphyrin III Dimethyl Ester [Example 115]”: in data set [2] (setting [6]), the EC50 turned out to be 300 nM. Further, in data set [3] (rat, in vivo), the “Normal skin Response (1 μmol)” value was 6 h. Besides, the “Max % rat Artery Accelularity” value in data set [4] (drug dose 1 μMol) turned out to be 10%.

In the case of “Gallium Chloride Rhodoporphyrin Di-methylester [Example 123]”, in data set [2] (setting [8]), the EC50 is 400 nM. In addition, the Normal skin Response (1 μmol) in data set [3] (rat, in vivo) amounted to 6 h. Further, in data set [4] (drug dose 1 μMol), the “Max % Rat Artery Acceluarity” value is 60%.

For the compound “Tin (IV) Dichloride Mesoporphyrin Dimethyl Ester [Example 32]”, in data set [2] (setting [6]), the EC50 was found to be 1400 nM. For the same compound, the “Normal skin Response (1 μmol)” value in data set [3] (rat, in vivo) amounted to 24 h. In data set [4] (drug dose 1 μMol), the “Max % rat Artery Accelularity” value was determined as 20%.
